Assay results from patent publication US8653115B2, “Heterocyclic non-nucleoside compounds, their preparation, pharmaceutical composition and their use as antiviral agents” (Shanghai Institute of Materia Medica, Chinese Academy of …, priority 2006, dated 2014).

How the values were obtained:
[1] = Cytotoxicity to HepG2.2.15 cells, MTT method; format: cell-based; details: human, HepG2.2.15 cells (HBV-transgenic human hepatoma cell line), day 8, 50% death concentration
Method: (§1) Hepatitis B virus (HBV) transgenic human hepatoma carcinoma cell, HepG2.2.15 cell line, can secrete hepatitis B virus particles (containing antigen and DNA) into the supernatant when being incubated.
(§2) Under the influence of antiviral drugs, the contents of HBsAg, HBeAg and viral DNA secreted from cells into the supernatant were detected. Compared with the contents of control groups without drugs, the antiviral activity of the sample drugs can be observed. Meanwhile, the cytotoxic effect of the sample drugs can be detected. The value concentration of the sample drugs which caused 50% of the cells dead measured with MTT method was CC50. And the value concentration of the sample drugs which inhibited 50% of the secretion of HBsAg and HBeAg detected by specific ELISA kits and inhibited 50% of the viral DNA replication detected by fluorescent quantitation PCR method was IC50.
(§3) HepG2.2.15 cells were inoculated into a 96-well plate, and the sample drugs were added next day. The medium and the sample drugs with the same concentration were renewed periodically, and the supernatants were collected on the eighth day to be detected. MTT was added to the cells in the 96-well plate, and MTT dissolving solution was added after 4 hours and reacted overnight. OD570 was measured on ELISA the next day. The cytotoxicity of the sample drugs to HepG2.2.15 cells, the effect of the sample drugs on the growth of the cells, and the concentration of the sample drugs (CC50) resulting in 50% of the cells dead were estimated according to the OD values.

[2] = system: Duck hepatitis B virus (DHBV); assay: Anti hepatitis B virus activity on animal: DHBV-DNA level in serum of infected ducks, dot blot hybridization; format: in vivo, Beijing duck; details: 50 mg/kg oral (intragastric) twice per day for 10 days; for inhibitory effect to DHBV-DNA in duck serum, group analysis (versus virus control group) / inhibitory effect to DHBV-DNA in duck serum, paired analysis (versus T0 of same group): T5, T10, P3
Method: The solutions of the sample drugs having required concentration (100 mg/mL) were prepared by using 0.3% sodium carboxymethyl cellulose. Batch number: 00701010
Strong positive serum of Duck hepatitis B virus DNA (DHBV-DNA), collected from Shanghai brown-duck, was store at −70[…].
1-day-old Beijing duck, purchased from Beijing QianJin breeding duck farm.
1-day-old Beijing duck was injected DHBV-DNA positive serum of Shanghai brown-duck via vena cruralis with 0.2 ml/each duck. Blood was taken on the seventh day after infected; serum was separated and stored at −70[…] to be detected.
DHBV infected ducklings were randomly grouped (six ducklings/each group) to carry out drug treatment experiment after 7 days. The administration groups (W28D, W28F, W28M, C37) were set 1 dose group—50 mg/kg respectively, and oral (intragastric) administered twice per day for 10 days (Bid×10). The drugs were replaced with normal saline in virus control group (DHBV). […] Blood was taken from the vena cruralis of the duck after 7 days later of infection, i.e. before drug administration (T0), the fifth day (T5) and the tenth day after drug administration (T10), and the third day after drug withdrawal (P3), then serum was separated and stored at −70[…] to be detected.
The above duck serum was taken and dotted on the membrane to measure the dynamic level of DHBV-DNA in the duck serum. According to the instruction of nick translation kit, dot blot hybridization of duck serum and was carried out using ^32 P labeled DHBV-DNA probe (purchased from Promega Co.). And the dots were shown on the membrane by radioautography. The OD values (the filter was 490 nm) of the dots on the membrane were measured by ELISA. DHBV-DNA density of the serum was calculated and the OD values of the hybridized dot were used as the values of DHBV-DNA level.
a) The mean values (X±SD) of DHBV-DNA OD values of serum at different time of the ducks in each group were calculated, and the DNA levels of serum at different time after drug administration (T5, T10) and the third day after drug withdrawal (P3) for the ducks in each group and were compared with the OD values before administration (T0) of the same group. The values of t1 and P1 were calculated by paired-t test. The significance of the difference was analyzed, and the inhibitory effect of the drugs on the viral infection was estimated.
b). The inhibition ratio (%) to DHBV-DNA of serum at different time after administration (T5, T10) and the third day after drug withdrawal (P3) of the ducks in each group were calculated and illuminated in the figure, and the dynamic state of the inhibition ratios of DHBV-DNA in duck serum in each group were compared.
c) The inhibitions % of DHBV-DNA at different time of the administration group were compared with that at the same time of the virus control group. […] The significance of the difference was analyzed, and the drug action was estimated.

[3] = system: Hepatitis B virus (HBV) DNA; assay: HBV-DNA replication in HepG2.2.15 supernatant, fluorescent quantification PCR; format: cell-based; details: Hepatitis B virus, 192 h; HepG2.2.15 supernatant, day 8, PCR; NA means no obvious biological activity or unable to be calculated
Method: as §1, §2, §3
A suitable amount of supernatant was added to the same volume of virus extract solution, and was boiled after mixed homogenously, then centrifuged at 10000 rpm under room temperature for 5 minutes, and a suitable amount of supernatant was collected for PCR amplification. Meanwhile five HBV-DNA standard samples were set to establish a standard curve. According to the obtained viral DNA replication value, the inhibition ratios of HBV-DNA replication of each sample drug at different concentrations were calculated, and then the half inhibition rates of the sample drugs were calculated to obtain IC50. For those samples that can not be calculated for IC50 values, they can be represented by ICx and list the corresponding concentration values.

Structure (SMILES)	CC50 at 8 day [1] [nM]	inhibitory effect to DHBV-DNA in duck serum, group analysis (versus virus control group) [2]	inhibitory effect to DHBV-DNA in duck serum, paired analysis (versus T0 of same group) [2]	IC50 [3] [nM]	DHBV-DNA rebound 3 days after drug withdrawal (P3) ([2]; then P3)
COc1ccc(-c2nc(C(=O)OC(C)C)c(CC(C)C)s2)cc1 [C37]	> 33000	at each time point did not show inhibitory effect to DHBV-DNA	at each time point did not show inhibitory effect to DHBV-DNA	30	–
CC(C)Cc1sc(-c2nccs2)nc1C(=O)OC(C)C [C310-4]	> 100000	T10 showed inhibitory effect to DHBV-DNA with statistical significance	T10 showed inhibitory effect to DHBV-DNA with statistical significance	810	–
CC(C)Cc1sc(-c2nccs2)nc1C(=O)NCc1ccc(F)cc1 [W28F]	43000	T5 and T10 showed inhibitory effect to DHBV-DNA with statistical significance	T5 and T10 showed inhibitory effect to DHBV-DNA with statistical significance	780	rebounded, it did not reach the original level
Cc1cnc(-c2nc(C(=O)OC(C)C)c(CC(C)C)s2)s1 [W28M]	> 20000	did not show any effect with statistical significance	T10 and P3 showed inhibitory effect to DHBV-DNA with statistical significance	< 80	–
